Here are results for 24 compounds from US20210355121A1, “FUSED TRICYCLIC KRAS INHIBITORS” (Incyte Corporation, priority 2020, published 2021).

The target in one experiment is KRAS G12C (Homo sapiens, UniProt P01116, G12C). The experiment in a line: KRAS G12C GDP-GTP exchange assay (bodipy-GDP for GppNHp, with SOS1). It is filed as biochemical. Details: G12C_exchange (KRAS_G12C exchange assay IC50): scale not given here. The following applies: 2.5 nM bodipy-loaded KRAS G12C, 2 hours pre-incubation with inhibitor, 2 hours after GppNHp-SOS1; for pIC50: read-out: G12C_exchange (KRAS_G12C exchange assay IC50). The procedure:
The inhibitor potency of the exemplified compounds was determined in a fluorescence based guanine nucleotide exchange assay, which measures the exchange of bodipy-GDP (fluorescently labeled GDP) for GppNHp (Non-hydrolyzable GTP analog) to generate the active state of KRAS in the presence of SOS1 (guanine nucleotide exchange factor). Inhibitors were serially diluted in DMSO and a volume of 0.1 μL was transferred to the wells of a black low volume 384-well plate. 5 μL/well volume of bodipy-loaded KRAS G12C diluted to 5 nM in assay buffer (25 mM Hepes pH 7.5, 50 mM NaCl, 10 mM MgCl2 and 0.01% Brij-35) was added to the plate and pre-incubated with inhibitor for 2 hours at ambient temperature. Appropriate controls (enzyme with no inhibitor or with a G12C inhibitor (AMG-510)) were included on the plate. The exchange was initiated by the addition of a 5 μL/well volume containing 1 mM GppNHp and 300 nM SOS1 in assay buffer. The 10 μL/well reaction concentration of the bodipy-loaded KRAS G12C, GppNHp, and SOS1 were 2.5 nM, 500 uM, and 150 nM, respectively. The reaction plates were incubated at ambient temperature for 2 hours, a time estimated for complete GDP-GTP exchange in the absence of inhibitor. For the KRAS G12D and G12V mutants, similar guanine nucleotide exchange assays were used with 2.5 nM as final concentration for the bodipy loaded KRAS proteins and with 4 hours and 3 hours incubation after adding GppNHp-SOS1 mixture for G12D and G12V respectively. A cyclic peptide described to selectively bind G12D mutant (Sakamoto et al., BBRC 484.3 (2017), 605-611) or internal compounds with confirmed binding were used as positive controls in the assay plates. Fluorescence intensities were measured on a PheraStar plate reader instrument (BMG Labtech) with excitation at 485 nm and emission at 520 nm.
Either GraphPad prism or XLfit was used to analyze the data. The IC50 values were derived by fitting the data to a four parameter logistic equation producing a sigmoidal dose-response curve with a variable Hill coefficient. Prism equation: Y=Bottom+(Top−Bottom)/(1+10^((Log IC50−X)*Hill slope)); XLfit equation: Y=(A+((B−A)/(1+((X/C)^D)))) where X is the logarithm of inhibitor concentration and Y is the response.

For experiment [1], the system named is MIA PaCa-2 (KRAS G12C) cells. The experiment in a line: KRAS_G12C cellular pERK HTRF assay. The note with it: Homo sapiens, MIA PaCa-2; phospho-ERK1/2 HTRF, 4 hours incubation; read-out: G12C_pERK (KRAS_G12C pERK assay IC50). It is filed as cell-based, human. Here is the method:
MIA PaCa-2 (KRAS G12C; ATCC® CRL-1420), A427 (KRAS G12D; ATCC® HTB53), HPAF-II (KRAS G12D; ATCC® CRL-1997) and NCI-H838 (KRAS WT; ATCC® CRL-5844) cells are purchased from ATCC and maintained in RPMI 1640 media supplemented with 10% FBS (Gibco/Life Technologies). The cells are plated at 5000 cells per well (8 uL) into Greiner 384-well low volume, flat-bottom, tissue culture treated white plates and incubated overnight at 37° C., 5% CO2. The next morning, test compound stock solutions are diluted in media at 3× the final concentration, and 4 uL are added to the cells. The plate is mixed by gentle rotation for 30 seconds (250 rpm) at room temperature. The cells are incubated with the KRAS G12C and G12D compounds for 4 hours or 2 hours respectively at 37° C., 5% CO2.
4 uL of 4× lysis buffer with blocking reagent (1:25) (Cisbio) are added to each well and plates are rotated gently (300 rpm) for 30 minutes at room temperature. 4 uL per well of Cisbio anti Phospho-ERK 1/2 d2 is mixed with anti Phospho-ERK 1/2 Cryptate (1:1) are added to each well, mixed by rotation and incubated overnight in the dark at room temperature. Plates are read on the Pherastar plate reader at 665 nm and 620 nm wavelengths. IC50 determination is performed by fitting the curve of inhibitor percent inhibition versus the log of the inhibitor concentration using the GraphPad Prism 7 software.
Background: Time-resolved FRET reads energy transfer from a long-lived donor to a nearby acceptor.

pIC50: −log10 of the molar value. Bounds are passed on as bounds.

Sequence of KRAS G12C (P01116 1-188 isoform P01116-2 G12C): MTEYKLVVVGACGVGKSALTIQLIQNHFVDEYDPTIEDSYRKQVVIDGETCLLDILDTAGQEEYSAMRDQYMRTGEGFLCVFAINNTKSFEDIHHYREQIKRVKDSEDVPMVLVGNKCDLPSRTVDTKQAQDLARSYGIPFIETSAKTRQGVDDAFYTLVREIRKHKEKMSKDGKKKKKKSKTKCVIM

Consider `C=CC(=O)N1CC[C@H](n2ncc3c(OC[C@@H]4CCCN4C)nc4c(F)c(-c5c(C)c(Cl)cc6[nH]ncc56)c(Cl)cc4c32)C[C@H]1CC#N` (single isomer, unassigned) [Example 20b], for which the pIC50 (commonly the negative decadic logarithm of the IC50, by convention in mol/L) on KRAS G12C was at least 7.00. On to `CC#CC(=O)N1CC[C@H](n2ncc3c(N4CC(C)(N(C)C)C4)nc4c(F)c(-c5c(C)c(C)cc6[nH]ncc56)c(Cl)cc4c32)C[C@H]1CC#N` (single isomer, unassigned) [Example 82a], for which the pIC50 (in experiment [1]; on KRAS G12C) was at least 7.00 each time. For `COC/C=C/C(=O)N1CC[C@H](n2ncc3c(OC[C@@H]4CCCN4C)nc4c(F)c(-c5c(C)c(Cl)cc6[nH]ncc56)c(Cl)cc4c32)C[C@H]1CC#N` (single isomer, unassigned) [Example 19b], on KRAS G12C, the “G12C_exchange (KRAS_G12C exchange assay IC50)” value (from here on “G12C_exchange”) is “††”. For `C=CC(=O)N1CC[C@H](n2ncc3c(N4CC(N(C)C)C4)nc4c(F)c(-c5cncc6ccccc56)c(Cl)cc4c32)C[C@H]1CC#N` [Example 22, 2-((2S,4S)-1-acryloyl-4-(8-chloro-4-(3-(dimethylamino)azetidin-1-yl)-6-fluoro-7-(isoquinolin-4-yl)-1H-pyrazolo[4,3-c]quinolin-1-yl)piperidin-2-yl)acetonitrile], the pIC50 (in experiment [1]; on KRAS G12C) was at least 7.00 throughout. In the case of `Cc1c(Cl)cc2[nH]ncc2c1-c1c(Cl)cc2c(nc(N3CC(C)(N(C)C)C3)c3cnn([C@H]4CCN(C(=O)/C=C/C(F)F)[C@H](CC#N)C4)c32)c1F` (single isomer, unassigned) [Example 14b], the “G12C_exchange” value at KRAS G12C is “††”. On the same count and under the same terms, as for `C=C(F)C(=O)N1CC[C@H](n2ncc3c(N4CC(N(C)C)C4)nc4c(F)c(-c5c(C)c(Cl)cc6[nH]ncc56)c(Cl)cc4c32)C[C@H]1CC#N` (single isomer, unassigned) [Example 8b], the entry is “††”.

As for `CC#CC(=O)N1CC[C@H](n2ncc3c(N4CC(C)(N(C)C)C4)nc4c(F)c(-c5c(C)c(Cl)cc6[nH]ncc56)c(Cl)cc4c32)C[C@H]1CC#N` (single isomer, unassigned) [Example 11b], the “G12C_exchange” value at KRAS G12C is reported as “††”. In the case of `Cc1cccc(-c2c(Cl)cc3c(nc(N4CC(N(C)C)C4)c4cnn([C@H]5CCN(C(=O)/C=C/CN(C)C)[C@H](CC#N)C5)c43)c2F)c1Cl` [Example 24, 2-((2S,4S)-4-(8-chloro-7-(2-chloro-3-methylphenyl)-4-(3-(dimethylamino)azetidin-1-yl)-6-fluoro-1H-pyrazolo[4,3-c]quinolin-1-yl)-1-((E)-4-(dimethylamino)but-2-enoyl)piperidin-2-yl)acetonitrile], the pIC50 (in experiment [1]; on KRAS G12C) was at least 7.00 in each case. In the case of `CC#CC(=O)N1CC[C@H](n2ncc3c(OC[C@@H]4CCCN4C)nc4c(F)c(-c5cccc6cccc(C#N)c56)c(C)cc4c32)C[C@H]1CC#N` (single isomer, unassigned) [Example 53a], the pIC50 (in experiment [1]; at KRAS G12C) was at least 7.00 each time. Take `CC#CC(=O)N1CC[C@H](n2ncc3c(N4CC(C)(N(C)C)C4)nc4c(F)c(-c5cccc6cccc(C#N)c56)c(C)cc4c32)C[C@H]1CC#N` (single isomer, unassigned) [Example 60a]: the pIC50 (in experiment [1]; on KRAS G12C) was at least 7.00 each time. Take `COC/C=C/C(=O)N1CC[C@H](n2ncc3c(N4CC(N(C)C)C4)nc4c(F)c(-c5c(C)c(Cl)cc6[nH]ncc56)c(Cl)cc4c32)C[C@H]1CC#N` (single isomer, unassigned) [Example 5a]: the pIC50 (in experiment [1]; on KRAS G12C) was at least 7.00 each time. As for `Cc1c(Cl)cc2[nH]ncc2c1-c1c(Cl)cc2c(nc(N3CC(N(C)C)C3)c3cnn([C@H]4CCN(C(=O)/C=C/C(F)F)[C@H](CC#N)C4)c32)c1F` (single isomer, unassigned) [Example 7b], the “G12C_exchange” value at KRAS G12C was “††”. Consider `Cc1cc2[nH]ncc2c(-c2c(C)cc3c(nc(O[C@@H](C)[C@@H]4CCCN4C)c4cnn([C@H]5CCN(C(=O)/C=C/CN(C)C)[C@H](CC#N)C5)c43)c2F)c1C` (single isomer, unassigned) [Example 71b], for which the pIC50 (in experiment [1]; on KRAS G12C) was at least 7.00 in each case. Turning to `Cc1cc2[nH]ncc2c(-c2c(Cl)cc3c(nc(N4CC(C)(N(C)C)C4)c4cnn([C@H]5CCN(C(=O)/C=C/CN(C)C)[C@H](CC#N)C5)c43)c2F)c1C` (single isomer, unassigned) [Example 84a], the pIC50 (in experiment [1]; at KRAS G12C) was at least 7.00 each time. `Cc1c(Cl)cc2[nH]ncc2c1-c1c(Cl)cc2c(nc(N3CC(C)(N(C)C)C3)c3cnn([C@H]4CCN(C(=O)/C=C/CN(C)C)[C@H](CC#N)C4)c32)c1F` (single isomer, unassigned) [Example 10b]: the “G12C_exchange” value at KRAS G12C was “††”. Consider `C=CC(=O)N1CC[C@H](n2ncc3c(N4CC(C)(N(C)C)C4)nc4c(F)c(-c5c(C)c(Cl)cc6[nH]ncc56)c(Cl)cc4c32)C[C@H]1CC#N` (single isomer, unassigned) [Example 16b], for which the “G12C_exchange” value on KRAS G12C is listed as “††”.

As to `CC#CC(=O)N1CC[C@H](n2ncc3c(N4CC(N(C)C)C4)nc4c(F)c(-c5c(C)c(Cl)cc6[nH]ncc56)c(Cl)cc4c32)C[C@H]1CC#N` (single isomer, unassigned) [Example 9b], the “G12C_exchange” value on KRAS G12C was “††”. As for `CC#CC(=O)N1CC[C@H](n2ncc3c(OC[C@@H]4CCCN4C)nc4c(F)c(-c5c(C)c(Cl)cc6[nH]ncc56)c(Cl)cc4c32)C[C@H]1CC#N` (single isomer, unassigned) [Example 18b], the “G12C_exchange” value on KRAS G12C is “††”. Still for that read-out and setting: as for `COC/C=C/C(=O)N1CC[C@H](n2ncc3c(N4CC(N(C)C)C4)nc4c(F)c(-c5c(C)c(Cl)cc6[nH]ncc56)c(Cl)cc4c32)C[C@H]1CC#N` (single isomer, unassigned) [Example 5b], the entry is “††”; as for `COC/C=C/C(=O)N1CC[C@H](n2ncc3c(N4CC(C)(N(C)C)C4)nc4c(F)c(-c5c(C)c(Cl)cc6[nH]ncc56)c(Cl)cc4c32)C[C@H]1CC#N` (single isomer, unassigned) [Example 12b], “††”. For the compound `Cc1c(Cl)cc2[nH]ncc2c1-c1c(Cl)cc2c(nc(N3CC(N(C)C)C3)c3cnn([C@H]4CCN(C(=O)/C=C/CF)[C@H](CC#N)C4)c32)c1F` (single isomer, unassigned) [Example 6b], the “G12C_exchange” value on KRAS G12C is on record as “††”. On the same count and under the same terms, under `C=C(F)C(=O)N1CC[C@H](n2ncc3c(N4CC(C)(N(C)C)C4)nc4c(F)c(-c5c(C)c(Cl)cc6[nH]ncc56)c(Cl)cc4c32)C[C@H]1CC#N` (single isomer, unassigned) [Example 15b] stands “††”; under `Cc1c(Cl)cc2[nH]ncc2c1-c1c(Cl)cc2c(nc(N3CC(N(C)C)C3)c3cnn([C@H]4CCN(C(=O)/C=C/CN(C)C)[C@H](CC#N)C4)c32)c1F` (single isomer, unassigned) [Example 4b], “††”. As to `Cc1c(Cl)cc2[nH]ncc2c1-c1c(Cl)cc2c(nc(N3CC(C)(N(C)C)C3)c3cnn([C@H]4CCN(C(=O)/C=C/CF)[C@H](CC#N)C4)c32)c1F` (single isomer, unassigned) [Example 13b], the “G12C_exchange” value at KRAS G12C is “††”.
